This note sets out measurements from ChEMBL document CHEMBL4346688, “Discovery of novel mutant-combating ALK and ROS1 dual inhibitors bearing imidazolidin-2-one moiety with reasonable PK properties” (Eur J Med Chem, 2019).

In experiment [1] the test system is KARPAS-299. Nature of the experiment: cells. Conditions: Homo sapiens, KARPAS-299, 72 h.
Description: Cytotoxicity against human KARPAS299 cells incubated for 72 hrs by MTT assay
Experiment [2] relates to NCI-H2228. The experiment in a line: cells. The following applies: Homo sapiens, NCI-H2228, 72 h.
Description: Cytotoxicity against human NCI-H2228 cells incubated for 72 hrs by MTT assay
In experiment [3] the test system is BaF3. The experiment in a line: cells. The following applies: Mus musculus, BaF3, 72 h.
In experiment [4] the test system is BaF3. Nature of the experiment: cells. The following applies: Mus musculus, BaF3, 72 h. This is another data set of the same source.
Description: Cytotoxicity against mouse BA/F3 cells incubated for 72 hrs by MTT assay
The test system of experiment [5] is HCC78. The experiment in a line: cells. Conditions: Homo sapiens, HCC78, 72 h.
Description: Cytotoxicity against human HCC78 cells incubated for 72 hrs by MTT assay
In experiment [6] the test system is A549. The experiment in a line: cells. Conditions: Homo sapiens, A549, 72 h.
Experiment [7] relates to A549. Nature of the experiment: cells. The following applies: Homo sapiens, A549, 72 h. This is another data set of the same source.
Description: Cytotoxicity against human A549 cells incubated for 72 hrs by MTT assay
For experiment [8], the target named is ALK tyrosine kinase receptor (Homo sapiens, UniProt Q9UM73).
Description: Inhibition of N-terminal GST-tagged human ALK cytoplasmic domain (1058 to 1620 residues) expressed in Baculovirus expression system using srctide as substrate incubated for 1 hr by mobility shift assay
The target in experiment [9] is ALK tyrosine kinase receptor (Homo sapiens, UniProt Q9UM73, L1196M).
The target of experiment [10] is ALK tyrosine kinase receptor (Homo sapiens, UniProt Q9UM73, G1202R).
The target in experiment [11] is Proto-oncogene tyrosine-protein kinase ROS (Homo sapiens, UniProt P08922).
Description: Inhibition of N-terminal GST-tagged human ROS1 cytoplasmic domain (1883 to 2347 residues) expressed in Baculovirus expression system using IRS1 as substrate incubated for 1 hr by mobility shift assay
The target in experiment [12] is Epidermal growth factor receptor (Homo sapiens, UniProt P00533).
Chain of Epidermal growth factor receptor (P00533 whole entry): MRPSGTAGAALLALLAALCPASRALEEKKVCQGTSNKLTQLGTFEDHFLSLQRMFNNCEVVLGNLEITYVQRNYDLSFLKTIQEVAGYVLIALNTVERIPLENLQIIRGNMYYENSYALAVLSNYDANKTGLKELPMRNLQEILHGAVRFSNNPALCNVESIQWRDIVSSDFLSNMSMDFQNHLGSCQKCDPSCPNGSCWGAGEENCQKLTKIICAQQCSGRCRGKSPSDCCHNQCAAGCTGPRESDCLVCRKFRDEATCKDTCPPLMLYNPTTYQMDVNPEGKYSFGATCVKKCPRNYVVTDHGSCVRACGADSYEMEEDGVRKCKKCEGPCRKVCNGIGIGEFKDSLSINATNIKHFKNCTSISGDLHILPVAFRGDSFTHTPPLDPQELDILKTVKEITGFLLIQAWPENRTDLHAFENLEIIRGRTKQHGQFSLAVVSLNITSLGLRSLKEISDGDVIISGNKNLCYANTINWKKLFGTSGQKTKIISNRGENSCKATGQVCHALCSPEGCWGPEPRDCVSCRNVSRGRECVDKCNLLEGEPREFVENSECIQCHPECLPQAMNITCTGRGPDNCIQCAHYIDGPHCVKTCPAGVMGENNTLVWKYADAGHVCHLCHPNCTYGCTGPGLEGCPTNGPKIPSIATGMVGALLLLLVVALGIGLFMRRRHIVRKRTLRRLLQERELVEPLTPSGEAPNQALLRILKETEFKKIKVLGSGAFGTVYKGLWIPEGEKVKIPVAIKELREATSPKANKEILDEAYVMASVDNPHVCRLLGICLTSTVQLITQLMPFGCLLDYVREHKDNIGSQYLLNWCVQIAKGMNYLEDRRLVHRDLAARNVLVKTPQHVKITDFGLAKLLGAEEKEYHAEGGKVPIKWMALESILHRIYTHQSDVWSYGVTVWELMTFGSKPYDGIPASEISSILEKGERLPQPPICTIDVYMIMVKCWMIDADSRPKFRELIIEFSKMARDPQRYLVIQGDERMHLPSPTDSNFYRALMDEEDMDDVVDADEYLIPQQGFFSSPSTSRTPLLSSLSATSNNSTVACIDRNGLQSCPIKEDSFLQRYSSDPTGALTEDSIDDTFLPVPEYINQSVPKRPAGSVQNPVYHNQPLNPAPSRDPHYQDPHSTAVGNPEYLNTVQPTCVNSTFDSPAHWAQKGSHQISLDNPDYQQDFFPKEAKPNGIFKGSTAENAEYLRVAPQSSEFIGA
Description: Inhibition of N-terminal GST-tagged human EGFR cytoplasmic domain (669 to 1210 residues) expressed in Baculovirus expression system using srctide as substrate incubated for 1 hr by mobility shift assay

Chain of ALK tyrosine kinase receptor (Homo sapiens, UniProt Q9UM73) (Q9UM73 whole entry): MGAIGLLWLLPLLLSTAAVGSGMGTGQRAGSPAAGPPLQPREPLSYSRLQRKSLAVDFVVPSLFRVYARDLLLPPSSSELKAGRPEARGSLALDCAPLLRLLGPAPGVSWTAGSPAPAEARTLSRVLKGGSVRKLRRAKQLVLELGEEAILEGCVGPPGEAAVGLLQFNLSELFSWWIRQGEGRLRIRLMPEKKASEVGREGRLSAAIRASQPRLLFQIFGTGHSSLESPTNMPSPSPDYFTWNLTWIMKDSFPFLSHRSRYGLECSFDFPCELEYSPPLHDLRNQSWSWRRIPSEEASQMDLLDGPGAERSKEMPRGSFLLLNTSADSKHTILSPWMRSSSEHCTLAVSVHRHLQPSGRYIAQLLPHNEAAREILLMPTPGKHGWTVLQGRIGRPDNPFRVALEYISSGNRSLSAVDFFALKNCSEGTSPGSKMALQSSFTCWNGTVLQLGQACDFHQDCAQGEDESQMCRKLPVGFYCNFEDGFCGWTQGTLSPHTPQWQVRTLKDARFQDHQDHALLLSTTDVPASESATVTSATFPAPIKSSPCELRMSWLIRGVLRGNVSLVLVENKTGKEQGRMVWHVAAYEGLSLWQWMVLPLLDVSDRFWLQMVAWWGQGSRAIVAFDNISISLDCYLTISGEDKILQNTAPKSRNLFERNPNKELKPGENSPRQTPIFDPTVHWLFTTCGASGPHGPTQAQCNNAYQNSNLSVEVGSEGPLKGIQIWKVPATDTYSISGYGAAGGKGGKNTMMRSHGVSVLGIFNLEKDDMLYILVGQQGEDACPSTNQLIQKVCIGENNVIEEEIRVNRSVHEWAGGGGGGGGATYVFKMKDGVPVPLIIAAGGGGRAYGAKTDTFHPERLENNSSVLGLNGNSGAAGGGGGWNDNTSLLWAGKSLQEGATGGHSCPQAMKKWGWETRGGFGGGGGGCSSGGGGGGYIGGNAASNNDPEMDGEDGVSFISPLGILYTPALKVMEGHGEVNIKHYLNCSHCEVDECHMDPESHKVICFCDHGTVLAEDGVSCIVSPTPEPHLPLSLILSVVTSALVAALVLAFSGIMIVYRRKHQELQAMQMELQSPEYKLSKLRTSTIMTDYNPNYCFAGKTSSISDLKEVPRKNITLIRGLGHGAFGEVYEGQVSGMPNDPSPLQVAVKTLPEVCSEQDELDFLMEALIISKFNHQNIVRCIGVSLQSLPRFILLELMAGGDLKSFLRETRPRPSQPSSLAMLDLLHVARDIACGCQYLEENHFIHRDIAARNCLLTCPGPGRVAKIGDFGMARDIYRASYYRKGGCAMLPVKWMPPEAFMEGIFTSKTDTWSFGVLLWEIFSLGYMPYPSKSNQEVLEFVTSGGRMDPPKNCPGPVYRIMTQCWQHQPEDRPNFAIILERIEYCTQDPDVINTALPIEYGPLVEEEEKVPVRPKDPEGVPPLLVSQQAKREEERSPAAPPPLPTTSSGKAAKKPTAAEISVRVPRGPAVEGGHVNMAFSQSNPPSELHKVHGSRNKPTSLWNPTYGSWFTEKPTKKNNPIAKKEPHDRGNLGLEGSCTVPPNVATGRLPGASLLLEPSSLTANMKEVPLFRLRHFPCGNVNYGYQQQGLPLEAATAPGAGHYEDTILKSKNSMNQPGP
Chain of ALK tyrosine kinase receptor (Homo sapiens, UniProt Q9UM73, G1202R) (Q9UM73 19-1620 G1202R limits assumed): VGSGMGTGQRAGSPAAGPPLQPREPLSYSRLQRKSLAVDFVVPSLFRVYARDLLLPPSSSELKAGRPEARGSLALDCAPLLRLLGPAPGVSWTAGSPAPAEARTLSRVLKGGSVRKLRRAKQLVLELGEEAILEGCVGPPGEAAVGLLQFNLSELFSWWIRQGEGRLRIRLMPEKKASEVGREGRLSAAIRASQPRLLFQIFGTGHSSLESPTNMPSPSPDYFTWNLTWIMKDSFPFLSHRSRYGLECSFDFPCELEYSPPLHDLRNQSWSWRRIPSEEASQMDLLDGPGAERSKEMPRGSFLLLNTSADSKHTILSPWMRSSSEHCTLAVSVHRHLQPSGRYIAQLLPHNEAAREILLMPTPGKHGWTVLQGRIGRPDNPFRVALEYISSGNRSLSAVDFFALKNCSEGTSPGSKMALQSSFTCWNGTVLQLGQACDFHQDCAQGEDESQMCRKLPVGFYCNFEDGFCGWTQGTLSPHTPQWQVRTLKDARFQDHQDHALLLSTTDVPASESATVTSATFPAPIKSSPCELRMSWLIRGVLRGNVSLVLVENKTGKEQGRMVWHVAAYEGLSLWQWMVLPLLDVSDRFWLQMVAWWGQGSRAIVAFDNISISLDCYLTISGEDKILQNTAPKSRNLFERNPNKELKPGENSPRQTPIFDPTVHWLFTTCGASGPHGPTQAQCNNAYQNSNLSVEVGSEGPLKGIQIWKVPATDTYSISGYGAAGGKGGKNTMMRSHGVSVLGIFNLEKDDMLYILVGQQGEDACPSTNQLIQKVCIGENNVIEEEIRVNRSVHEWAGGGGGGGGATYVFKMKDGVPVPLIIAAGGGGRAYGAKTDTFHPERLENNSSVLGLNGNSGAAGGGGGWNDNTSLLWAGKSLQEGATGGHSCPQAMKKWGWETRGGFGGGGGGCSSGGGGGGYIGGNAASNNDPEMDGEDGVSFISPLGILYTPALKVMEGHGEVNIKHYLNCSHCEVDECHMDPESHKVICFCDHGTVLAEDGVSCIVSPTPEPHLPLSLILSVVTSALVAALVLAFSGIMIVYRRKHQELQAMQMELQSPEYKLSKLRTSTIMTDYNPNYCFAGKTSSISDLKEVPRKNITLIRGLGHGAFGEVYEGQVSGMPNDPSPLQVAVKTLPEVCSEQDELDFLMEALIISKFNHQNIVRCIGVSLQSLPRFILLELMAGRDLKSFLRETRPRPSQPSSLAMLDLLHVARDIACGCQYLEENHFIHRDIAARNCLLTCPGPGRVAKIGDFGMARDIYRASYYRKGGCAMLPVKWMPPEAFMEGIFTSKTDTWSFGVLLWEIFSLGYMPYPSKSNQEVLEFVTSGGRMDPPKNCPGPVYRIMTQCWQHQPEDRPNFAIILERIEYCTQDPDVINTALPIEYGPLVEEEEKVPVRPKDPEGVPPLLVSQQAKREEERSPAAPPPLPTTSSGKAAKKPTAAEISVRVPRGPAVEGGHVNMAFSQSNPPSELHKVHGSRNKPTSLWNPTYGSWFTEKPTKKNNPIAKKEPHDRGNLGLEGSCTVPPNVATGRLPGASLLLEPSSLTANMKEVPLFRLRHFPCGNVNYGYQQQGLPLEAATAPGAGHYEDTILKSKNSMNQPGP
Chain of ALK tyrosine kinase receptor (Homo sapiens, UniProt Q9UM73, L1196M) (Q9UM73 19-1620 L1196M limits assumed): as the sequence (Q9UM73 19-1620 G1202R limits assumed) above, with L1178M, R1184G counted along it

With `COc1cc(N2CCN(CC(=O)N3CCN(CCO)CC3)C2=O)ccc1Nc1ncc(Cl)c(Nc2ccccc2S(=O)(=O)C(C)C)n1`, the IC50 in experiment [1] is 110 nM; in [2], 120 nM; in experiment [3], 160 nM; in [4] it was > 5000 nM; in experiment [5], 390 nM; in [6], 2440 nM. This compound showed an IC50 in [7] of 4590 nM.
For `COc1cc(N2CCN(CC(=O)O)C2=O)ccc1Nc1ncc(Cl)c(Nc2ccccc2S(=O)(=O)C(C)C)n1`, the IC50 in experiment [1] is 3270 nM; in experiment [2] it was 1710 nM; in experiment [3], > 5000 nM; in experiment [4] it was > 5000 nM; in experiment [5] it was 2510 nM; in experiment [6], > 5000 nM. In addition, the IC50 in [7] was > 5000 nM.
As for `COc1cc(N2CCN(C(=O)N(C)C)C2=O)ccc1Nc1ncc(Cl)c(Nc2ccccc2S(=O)(=O)C(C)C)n1`, the concentration for half-maximal inhibition (IC50) was 250 nM in experiment [1]; 610 nM in [2]; > 5000 nM in [3]; > 5000 nM in experiment [4]; 670 nM in [5]; 1410 nM in experiment [6]. This compound also yielded an IC50 in experiment [7] of 2590 nM.
In the case of `COc1cc(N2CCN(CC(=O)N3CCCC3)C2=O)ccc1Nc1ncc(Cl)c(Nc2ccccc2S(=O)(=O)C(C)C)n1`, the IC50 is 390 nM in [1]; 150 nM in experiment [2]; 2490 nM in experiment [3]; 4500 nM in experiment [4]; 270 nM in experiment [5]; 1100 nM in [6]. In addition, the IC50 in experiment [7] was found to be 3100 nM.
Regarding `COc1cc(N2CCN(CCCN)C2=O)ccc1Nc1ncc(Cl)c(Nc2ccccc2S(=O)(=O)C(C)C)n1`, the IC50 in experiment [8] was 4.7 nM; in [9] it was 5.1 nM; in experiment [10], 11.9 nM; in [11], 5.3 nM; in [12] it was > 1000 nM; in experiment [1], 170 nM. Also, the IC50 is 530 nM in [2]; 94 nM in experiment [3]; > 5000 nM in [4]; 160 nM in [5]; 1980 nM in [6]; > 5000 nM in experiment [7].
For the compound `COc1cc(N2CCN(CC(=O)N3CCOCC3)C2=O)ccc1Nc1ncc(Cl)c(Nc2ccccc2S(=O)(=O)C(C)C)n1`, the 50% inhibitory concentration (IC50) in experiment [1] is 760 nM; in experiment [2], 570 nM; in experiment [3] it was 2060 nM; in experiment [4], > 5000 nM; in [5], 210 nM; in experiment [6], 970 nM. Also, the IC50 in experiment [7] is > 5000 nM.
For `COc1cc(N2CCN(CC(=O)N3CCSCC3)C2=O)ccc1Nc1ncc(Cl)c(Nc2ccccc2S(=O)(=O)C(C)C)n1`, the half-maximal inhibitory concentration (IC50) in experiment [1] was 370 nM; in [2], 270 nM; in experiment [3] it was 1960 nM; in experiment [4] it was > 5000 nM; in [5], 530 nM; in experiment [6], 1270 nM. For the same compound, the IC50 in experiment [7] was > 5000 nM.
With `COc1cc(N2CCN(CC(=O)N3CCC[C@H]3CO)C2=O)ccc1Nc1ncc(Cl)c(Nc2ccccc2S(=O)(=O)C(C)C)n1`, the IC50 in experiment [1] is 140 nM; in [2], 170 nM; in [3] it was 1190 nM; in [4], > 5000 nM; in experiment [5], 56 nM; in [6], 1160 nM. This compound also had a concentration for half-maximal inhibition (IC50) in experiment [7] of 2450 nM.
For the compound `CCN(CC)C(=O)CN1CCN(c2ccc(Nc3ncc(Cl)c(Nc4ccccc4S(=O)(=O)C(C)C)n3)c(OC)c2)C1=O`, the IC50 was 170 nM in experiment [1]; 870 nM in experiment [2]; > 5000 nM in [3]; > 5000 nM in experiment [4]; 310 nM in experiment [5]; 1490 nM in [6]. Besides, the concentration for half-maximal inhibition (IC50) in experiment [7] is > 5000 nM.
On to `COc1cc(N2CCN(CC(=O)NCCO)C2=O)ccc1Nc1ncc(Cl)c(Nc2ccccc2S(=O)(=O)C(C)C)n1`, for which the IC50 in [1] was 110 nM; in [2] it was 420 nM; in [3], 3220 nM; in [4], > 5000 nM; in experiment [5], 69 nM; in experiment [6] it was 1830 nM. Besides, in [7], the IC50 was > 5000 nM.
Regarding `COc1cc(N2CCN(CC(=O)N3CC(O)C3)C2=O)ccc1Nc1ncc(Cl)c(Nc2ccccc2S(=O)(=O)C(C)C)n1`, the IC50 was 130 nM in experiment [1]; 320 nM in experiment [2]; 4280 nM in experiment [3]; > 5000 nM in [4]; 110 nM in [5]; 1020 nM in experiment [6]. In experiment [7], this compound displayed an IC50 of 2970 nM.
In the case of `CNC(=O)CN1CCN(c2ccc(Nc3ncc(Cl)c(Nc4ccccc4S(=O)(=O)C(C)C)n3)c(OC)c2)C1=O`, the half-maximal inhibitory concentration (IC50) in experiment [1] is 760 nM; in [2] it was 670 nM; in experiment [3], 1710 nM; in experiment [4], > 5000 nM; in experiment [5], 610 nM; in experiment [6], 140 nM. Also, in experiment [7], the IC50 is > 5000 nM.
For `COc1cc(N2CCN(CC(=O)N3CCN(C)CC3)C2=O)ccc1Nc1ncc(Cl)c(Nc2ccccc2S(=O)(=O)C(C)C)n1`, the IC50 was 2.1 nM in experiment [8]; 0.87 nM in experiment [9]; 10.3 nM in experiment [10]; 0.81 nM in experiment [11]; > 1000 nM in experiment [12]; 39 nM in [1]. Besides, the IC50 in [2] is 41 nM; in experiment [3], 69 nM; in [4], > 5000 nM; in [5] it was 87 nM; in experiment [6], 94 nM; in [7], 1720 nM.
Regarding `COc1cc(N2CCN(CCC#N)C2=O)ccc1Nc1ncc(Cl)c(Nc2ccccc2S(=O)(=O)C(C)C)n1`, the IC50 is 250 nM in experiment [1]; 1130 nM in experiment [2]; 2780 nM in experiment [3]; > 5000 nM in experiment [4]; 470 nM in experiment [5]; 2370 nM in [6]. Moreover, the IC50 in experiment [7] was > 5000 nM.
Turning to `COc1cc(N2CCN(C(=O)C3CCOCC3)C2=O)ccc1Nc1ncc(Cl)c(Nc2ccccc2S(=O)(=O)C(C)C)n1`, the IC50 in experiment [1] was 310 nM; in [2] it was 920 nM; in experiment [3], > 5000 nM; in experiment [4], > 5000 nM; in experiment [5], 690 nM; in [6], > 5000 nM. Further, in experiment [7], the IC50 is > 5000 nM.
With `COc1cc(N2CCN(CC(=O)N3CCCCC3)C2=O)ccc1Nc1ncc(Cl)c(Nc2ccccc2S(=O)(=O)C(C)C)n1`, the IC50 is 150 nM in [1]; 530 nM in experiment [2]; 2970 nM in experiment [3]; > 5000 nM in [4]; 490 nM in [5]; 1070 nM in experiment [6]. Besides, the IC50 in experiment [7] was > 5000 nM.
As to `COCCN1CCN(c2ccc(Nc3ncc(Cl)c(Nc4ccccc4S(=O)(=O)C(C)C)n3)c(OC)c2)C1=O`, the IC50 in [1] is 570 nM; in [2] it was 870 nM; in experiment [3] it was 3510 nM; in [4], > 5000 nM; in [5] it was 410 nM; in experiment [6] it was 1150 nM. In experiment [7], this compound returned an IC50 of 3110 nM.
On to `COc1cc(N2CCN(CC(=O)N3CCC(C)CC3)C2=O)ccc1Nc1ncc(Cl)c(Nc2ccccc2S(=O)(=O)C(C)C)n1`, for which the IC50 was 280 nM in [1]; 350 nM in experiment [2]; > 5000 nM in [3]; > 5000 nM in experiment [4]; 870 nM in [5]; 2360 nM in experiment [6]. For the same compound, the IC50 in experiment [7] was > 5000 nM.
`COc1cc(N2CCN(CC(=O)NC3CC3)C2=O)ccc1Nc1ncc(Cl)c(Nc2ccccc2S(=O)(=O)C(C)C)n1`: the IC50 in experiment [1] was 270 nM; in experiment [2] it was 910 nM; in experiment [3], > 5000 nM; in experiment [4], > 5000 nM; in experiment [5], 510 nM; in [6], 1740 nM. For the same compound, in experiment [7], the IC50 is > 5000 nM.
As to `COc1cc(N2CCN(C[C@@H]3CO3)C2=O)ccc1Nc1ncc(Cl)c(Nc2ccccc2S(=O)(=O)C(C)C)n1`, the IC50 was 170 nM in experiment [1]; 320 nM in experiment [2]; > 5000 nM in [3]; > 5000 nM in [4]; 570 nM in experiment [5]; 2820 nM in experiment [6]. Further, the IC50 in experiment [7] is > 5000 nM.
As for `COc1cc(N2CCN(CC(=O)NCC#N)C2=O)ccc1Nc1ncc(Cl)c(Nc2ccccc2S(=O)(=O)C(C)C)n1`, the IC50 was 150 nM in [1]; 230 nM in experiment [2]; 2790 nM in experiment [3]; > 5000 nM in experiment [4]; 77 nM in experiment [5]; 2410 nM in experiment [6]. For the same compound, the IC50 in experiment [7] is 4120 nM.
`COc1cc(N2CCN(CCN3CCOCC3)C2=O)ccc1Nc1ncc(Cl)c(Nc2ccccc2S(=O)(=O)C(C)C)n1`: the half-maximal inhibitory concentration (IC50) in experiment [1] is 390 nM; in [2] it was 750 nM; in experiment [3] it was 110 nM; in experiment [4] it was > 5000 nM; in experiment [5] it was 730 nM; in [6], 2170 nM. In experiment [7], the IC50 was > 5000 nM.
Regarding `CCOC(=O)CN1CCN(c2ccc(Nc3ncc(Cl)c(Nc4ccccc4S(=O)(=O)C(C)C)n3)c(OC)c2)C1=O`, the 50% inhibitory concentration (IC50) is 760 nM in experiment [1]; 1530 nM in experiment [2]; 3450 nM in experiment [3]; > 5000 nM in experiment [4]; 1570 nM in experiment [5]; 2110 nM in experiment [6]. In addition, in experiment [7], the IC50 was > 5000 nM.
